From patent US6949652B2, “Crystalline forms of 3-isopropyl-6-[4-(2,5-difluoro-phenyl)-oxazol-5-yl]-[1,2,4]triazolo-[4,3-A]pyridine” (Pfizer, Inc., priority 2002, dated 2005)
pIC50: −log10 of the molar value.

Legend:
[1] = system: TNF-alpha production by human LPS-treated monocytes; assay: Inhibition of TNF-alpha production by human LPS-treated monocytes; format: cell-based; details: Monocyte, human mononuclear cells, 4 hours, TNF-α ELISA, read-out: IC50 in the TNFα in vitro assay
Protocol: Inhibition of TNF-alpha Production by Human LPS-treated Monocytes
Mononuclear cells are isolated from heparinized blood (1.5 ml of 1000 units/ml heparin for injection, Elkins-Sinn, Inc. added to each 50 ml sample) using Accuspin System-Histopaque-1077 tubes (Sigma A-7054). Thirty-five milliliters of whole blood are added to each tube and the tubes are centrifuged at 2100 rpm for 20 minutes in a Beckman GS-6KR centrifuge with the brake off at room temperature. The mononuclear cells which collect at the interface are removed, diluted with Macrophage serum free medium (Gibco-BRL) (Medium) to achieve a final volume of 50 ml, and collected by centrifugation for 10 minutes. The supernatant is discarded and the cell pellet is washed 2 times with 50 ml of Medium. A sample of the suspended cells is taken before the second wash for counting. Based on this count, the washed cells are diluted with Medium containing 1% FBS to a final concentration of 2.7×10^6 cells/ml and 75 μl of the cell suspension is added to each well of a 96 well plate.
3-isopropyl-6-[4-(2,5-difluoro-phenyl)-oxazol-5-yl]-[1,2,4]triazolo-[4,3-a]pyridine may be tested at final concentrations from 2 μM to 0.016 μM, but may be tested at other concentrations, depending on desire. […]
Supernatants are analyzed for TNF-α content using R&D ELISA. […]
The amount of TNF-α immunoreactivity in the samples is calculated as follows: […]

MAPKAP kinase-2 = assay: MAPKAP Kinase-2 assay (LPS-stimulated monocytes, immunoprecipitation, kinase activity); format: cell-based; details: human monocytes, LPS 30 minutes, MAPKAP kinase-2 immunoprecipitate; read-out: IC50 in the MAPKAP in vitro assay
Protocol: Mononuclear cells are collected from heparinized human blood as detailed above. The washed cells are seeded into 6-well cluster plates at a density of 1×10^7 cells/well (in 2 ml of Medium). The plates are incubated at 37° C. in a 5% CO2 environment for 2 hours to allow adherence of the monocytes, after which time media supernatants containing non-adherent cells are removed by aspiration and 2 ml of fresh medium are added to each well. Plates are incubated overnight at 37° C. in a 5% CO2 environment.
Media are removed by aspiration. The attached cells are rinsed twice with fresh Medium, then 2 ml of D-MEM medium containing 10% heat inactivated FBS are added to each well. 3-isopropyl-6-[4-(2,5-difluoro-phenyl)-oxazol-5-yl]-[1,2,4]triazolo-[4,3-a]pyridine is prepared as a 30 mM stock solution in DMSO and diluted to 1250, 250, 50, 10, 2, and 0.4 μM in D-MEM containing 1% DMSO and 10% FBS. To individual wells of the monocyte cultures, 20 μl of these 3-isopropyl-6-[4-(2,5-difluoro-phenyl)-oxazol-5-yl]-[1,2,4]triazolo-[4,3-a]pyridine dilutions are added resulting in final 3-isopropyl-6-[4-(2,5-difluoro-phenyl)-oxazol-5-yl]-[1,2,4]triazolo-[4,3-a]pyridine concentrations of 12.5, 2.5, 0.5, 0.1, 0.02 and 0.004 μM. After a 10 minute preincubation period, 20 μl of a 10 μg/ml LPS solution are added to each well and the plates are incubated at 37° C. for 30 minutes. […]

TNFα = assay: In vivo inhibition of TNFα (LPS-injected rats, serum TNFα ELISA); details: Rattus norvegicus, ip, drug 1 hour before LPS i.p., serum TNFα 90 minutes later
Protocol: In Vivo Inhibition of TNFα Rats were weighed and dosed with vehicle (0.5% methyl cellulose, Sigma) or drug. One hour later, animals were injected i.p. with LPS (50 ug/rat, Sigma L-4130). Ninety minutes later, animals were sacrificed by asphyxiation with CO2 and bled by cardiac puncture. Blood was collected in Vaccutainer tubes and spun for 20 minutes at 3000 rpm. Serum was assayed for TNFα levels using an ELISA (R&D Systems).

[2] = Solid-state stability / dehydration of hydrate crystal forms; format: physicochemical; details: for Dehydration temperature range: solid crystal form
Protocol: Differential Scanning Calorimetry (DSC) analysis was carried out on either TA Instruments DSC2920 or TA instrument Q1000 or a Mettler DSC 821, calibrated with indium. DSC sample was prepared by weighing 2-4 mg of material in an aluminum pan with a pinhole. The sample was heated under nitrogen, at a rate of 5° C. or 10° C. per minute from 3 to 300 C.

Row | pIC50 [1] | pIC50 (MAPKAP kinase-2) | Dehydration temperature range [2] [°C] | Form conversion upon dehydration [2] | Compound | ED50 (TNFα) [mg/kg]
1 | > 5.00 | > 5.00 |  |  | CC(C)c1nnc2ccc(-c3ocnc3-c3cc(F)ccc3F)cn12 [6-[4-(2,5-Difluoro-phenyl)-oxazol-5-yl]-3-isopropyl-[1,2,4]triazolo-[4,3-a]pyridine] | < 50
2 |  |  | 30 to 70 |  | CC(C)c1nnc2ccc(-c3ocnc3-c3cc(F)ccc3F)cn12 [Form D, 3-Isopropyl-6-[4-(2,5-difluoro-phenyl)-oxazol-5-yl]-[1,2,4]triazolo-[4,3-a]pyridine form D] | 
3 |  |  | 75 to 100 | converts to Form B upon dehydration | CC(C)c1nnc2ccc(-c3ocnc3-c3cc(F)ccc3F)cn12 [Form E, 3-Isopropyl-6-[4-(2,5-difluoro-phenyl)-oxazol-5-yl]-[1,2,4]triazolo-[4,3-a]pyridine form E] | 
